Patent publication US20170216252A1, “ANTI-BACTERIAL PYRUVATE KINASE MODULATOR COMPOUNDS, COMPOSITIONS, USES AND METHODS” (SIMON FRASER UNIVERSITY, priority 2014, published 2017)
Values after ≈ are worked out from the molar mass of the structure shown.

test system: S. aureus ATCC 29213; experiment: In vitro susceptibility, broth microdilution MIC; format: cell-based, Staphylococcus aureus; conditions: Staphylococcus aureus, ATCC29213, Table 8; tested at least in duplicate, differing values all given; read-out: MIC
Procedure: The antimicrobial activities of PK inhibitor candidates were determined using the 96-well microtiter standard 2-fold serial broth microdilution method as described by CLSI (formerly NCCLS) with the various gram-positive and gram-negative bacteria species mentioned above. Bacteria from a single colony were grown, overnight in either BHI Broth (VRE), mueller hinton broth (S. aureus 29213; MRSA USA400) or L-broth (E. coli, P. aeruginosa, S. typhimuriu, K. Pneumonia and A. baumannii). […] Culture plates were incubated for 18-24 h at 37° C., and optical density at 600 nm (OD600) was measured using a Benchmark Plus™ microplate spectrophotometer (Bio-Rad™). The absorbance control values for the series containing CAMHB and inhibitor were subtracted as background from the corresponding infected wells. The MIC was defined as the lowest concentration of test compound leading to complete inhibition of cell growth in relationship to compound-free control wells as determined by optical density. […] All assays were run in triplicate (Tables 1-6) or duplicate. Experiments were replicated at least twice to verify reproducibility using the above conditions.

Structure (SMILES)	MIC
O=C(c1c(/C=C/c2ccc(Cl)cc2)[nH]c2cc(Br)c(F)cc12)C(F)(F)F [Compound 175, (E)-1-(6-Bromo-2-(4-chlorostyryl)-5-fluoro-1H-indol-3-yl)-2,2,2-trifluoroethanone]	2 µg/mL (≈ 4.48 µM)
Brc1ccc2cc(/C=C/c3cc(-c4ccccc4)on3)[nH]c2c1 [Compound 105, (E)-3-(2-(6-Bromo-1H-indol-2-yl)vinyl)-5-phenylisoxazole]	> 64 µg/mL
COC(=O)c1c(NCc2ccc(Cl)cc2)[nH]c2cc(Br)ccc12 [Compound 165, Methyl 6-bromo-2-(4-chlorobenzylamino)-1H-indole-3-carboxylate]	4 µg/mL (≈ 10.2 µM)

same assay, conditions: Staphylococcus aureus, ATCC29213, Tables 1-6 and text; minimum concentration to give >98% inhibition of growth; read-out: MIC

Structure (SMILES)	MIC
O=C(Nc1nc2ccc(Br)cc2s1)c1cc(Br)ccc1O [Compound 51, 5-Bromo-N-(6-bromobenzo[d]thiazol-2-yl)-2-hydroxybenzamide]	> 64 µg/mL

target: T1, MRSA PK (Staphylococcus aureus, UniProt Q6GG09); experiment: MRSA PK activity, continuous LDH-coupled assay; format: biochemical, S. aureus (MRSA strain Sanger 252); conditions: not given
T1 construct: His tag (pET-28a(+) vector) (N); made in house; host or cells: E. coli BL-21 (DE3)
Description: Genomic DNA of MRSA strain Sanger 252 extracted using DNeasy Tissue Kit™ (Qiagen™) was used as a template to generate the His-tagged MRSA PK. Human cDNA from MCF-7 breast cancer cell line (courtesy of Dr. J Wong, BC Cancer Research Center (Vancouver, Canada) was used as a template to generate the full-length human M2 PK enzyme. The following primer sets were used creating appropriate restriction sites (NdeI and XhoI sites underlined): For cloning of MRSA PK: M27F 5′-[…]-3′ and M27R 5′-[…]-3′, for cloning of human M2 PK isoform: hM2F 5′-[…]-3′ and hM2R 5′-[…]-3′. The resulting PCR fragments for each construct were cloned into the NdeI and XhoI unique sites of the bacterial expression vector pET-28a (+) (Novagen™). […] The sequence and the correct reading frame of all constructs were verified by sequencing. Human M1, R and L PK constructs in pET-28-a(+) vectors (courtesy of Dr. L. Cantley, Harvard Medical, School (Boston, USA)) were used to generate relevant recombinant His-tagged human PK isoforms.
MRSA and human constructs in pET-28a(+) were used to express relevant recombinant PK proteins in E. coli BL-21 (DE3). The proteins were expressed and purified using Ni-NTA agarose (Qiagen™) according to the manufacturer's protocol. Briefly, cells were grown to an absorbance of 0.4-0.5 at 600 nm in 2×YT medium, then induced with 0.1 mM IPTG for 3 h at 20° C. Cells were lysed by sonication on ice (3×10-s bursts with a 30-s recovery between bursts) in lysis buffer (0.2 mg/ml lysozyme, 50 mM Tris pH 7.5, 10 mM MgCl2, 200 mM NaCl, 100 mM KCl, 10% glycerol, 10 mM imidazole, 0.5% NP-40 and 1 mM DTT containing Complete™ protease inhibitor). Cell lysates were cleared by centrifugation (18,000×g in a Beckman™ JA-20 rotor) for 20 min at 4° C. and PK isoforms were purified by batch binding to Ni-NTA resin. The resins were then packed in columns (1×2 cm) and washed with 400 column volumes lysis buffer containing 30 mM imidazole. His-tagged PK isoforms were eluted with the same buffer containing 300 mM imidazole. The proteins were dialyzed overnight at 4° C. against 2000 volumes of ice-cold 30 mM Tris pH 7.5, 25 mM KCl, 5 mM MgCl2, 10% glycerol and 1 mM DTT to remove imidazole. All purification steps were done at 4° C.; enzymes were flash-frozen and stored at −70° C. […] Purity and physical integrity of proteins were assessed using SDS-polyacrylamide gel electrophoresis (SDS-PAGE) followed by coomassie blue staining. Protein concentration was estimated by Bradford assay (Bio-Rad Protein Assay™) using bovine serum albumin as a standard.
Candidate MRSA PK inhibitors were assayed for their ability to inhibit enzymatic activities of MRSA and human PKs. PK activity was determined using a continuous assay coupled to lactate dehydrogenase (LDH) in which the change in absorbance at 340 nm owing to oxidation of NADH was measured using a Benchmark Plus™ microplate spectrophotometer (Bio-Rad Laboratories, Hercules, Calif.). […] Reactions were initiated by the addition of 15 nM of one of the PK enzymes. PK activity proportional to the rate of change at 340 nm was expressed as specific activity (μmol/min/mg), which is defined as the amount of PK that catalyzes the formation of one micromole of either product per minute. Inhibitors were dissolved in DMSO with the final concentration of the solvent never exceeding 1% of the assay volume. IC50 values were calculated by curve fitting on a four-parameter dose-response model with variable slope using Graphpad Prism 5.0™ (GraphPad™ Software Inc., La Jolla, Calif.). […] Reactions were performed at 30° C. for up to 5 min. All values determined represent at least two measurements, in triplicate (Tables 1-6) or duplicate unless mentioned otherwise.

T1 sequence (Q6GG09 whole entry): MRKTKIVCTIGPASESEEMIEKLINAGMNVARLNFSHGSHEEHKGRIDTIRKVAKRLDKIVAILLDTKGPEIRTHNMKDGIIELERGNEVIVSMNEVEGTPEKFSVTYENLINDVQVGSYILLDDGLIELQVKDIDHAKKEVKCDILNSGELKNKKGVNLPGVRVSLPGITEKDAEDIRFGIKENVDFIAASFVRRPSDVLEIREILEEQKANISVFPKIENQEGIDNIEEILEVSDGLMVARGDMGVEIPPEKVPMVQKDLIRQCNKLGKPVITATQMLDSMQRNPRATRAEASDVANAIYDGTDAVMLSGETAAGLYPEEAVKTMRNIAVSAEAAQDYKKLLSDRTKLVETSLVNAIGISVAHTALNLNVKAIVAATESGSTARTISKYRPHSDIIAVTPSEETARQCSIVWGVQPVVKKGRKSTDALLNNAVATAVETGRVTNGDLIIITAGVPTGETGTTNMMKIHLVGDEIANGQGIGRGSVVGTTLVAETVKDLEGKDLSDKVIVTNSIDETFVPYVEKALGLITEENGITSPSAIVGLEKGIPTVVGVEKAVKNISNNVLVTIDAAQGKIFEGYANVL

Structure (SMILES)	IC50
O=C(c1c(/C=C/c2ccc(Cl)cc2)[nH]c2cc(Br)c(F)cc12)C(F)(F)F [Compound 175, (E)-1-(6-Bromo-2-(4-chlorostyryl)-5-fluoro-1H-indol-3-yl)-2,2,2-trifluoroethanone]	100 to 1000 nM
Brc1ccc2cc(/C=C/c3cc(-c4ccccc4)on3)[nH]c2c1 [Compound 105, (E)-3-(2-(6-Bromo-1H-indol-2-yl)vinyl)-5-phenylisoxazole]	> 100000 nM
Cc1ccc(/C=C/c2cc3ccc(Br)cc3[nH]2)s1 [Compound 116, (E)-6-Bromo-2-(2-(5-methylthiophen-2-yl)vinyl)-1H-indole]	> 1000 nM
COC(=O)c1c(NCc2ccc(Cl)cc2)[nH]c2cc(Br)ccc12 [Compound 165, Methyl 6-bromo-2-(4-chlorobenzylamino)-1H-indole-3-carboxylate]	> 1000 nM
Brc1ccc2cc(C#Cc3ccccn3)[nH]c2c1 [Compound 140, 6-Bromo-2-(pyridin-2-ylethynyl)-1H-indole]	> 1000 nM
Cc1ncc(/C=C/c2cc3ccc(Br)cc3[nH]2)s1 [Compound 115, (E)-5-(2-(6-Bromo-1H-indol-2-yl)vinyl)-2-methylthiazole]	> 1000 nM
Cn1c(-c2cc3ccccc3s2)nc2ccc(Br)cc21 [Compound 155, 2-(Benzo[b]thiophen-2-yl)-6-bromo-1-methyl-1H-benzo[d]imidazole]	100 to 1000 nM
[N-]=[N+]=Nc1ccc2cc(-c3cc4ccc(Br)cc4[nH]3)[nH]c2c1 [Compound 88, 6-azido-6′-bromo-1H,1′H-2,2′-biindole]	22.6 nM
O=C(c1c(/C=C/c2cn3ccccc3n2)[nH]c2cc(Br)ccc12)C(F)(F)F [Compound 176, (E)-1-(6-Bromo-2-(2-(imidazo[1,2-a]pyridin-2-yl)vinyl)-1H-indol-3-yl)-2,2,2-trifluoroethanone]	> 1000 nM
COc1ccc(/C=C/c2[nH]c3cc(Br)ccc3c2C(=O)O)nc1 [Compound 151, (E)-6-Bromo-2-(2-(5-methoxypyridin-2-yl)vinyl)-1H-indole-3-carboxylic acid]	> 1000 nM
COc1ccc(/C=C/c2[nH]c3cc(Br)ccc3c2C(=O)C(F)(F)F)nc1 [Compound 172, (E)-1-(6-Bromo-2-(2-(5-methoxypyridin-2-yl)vinyl)-1H-indol-3-yl)-2,2,2-trifluoroethanone]	> 1000 nM
Cc1csc(/C=C/c2cc3ccc(Br)cc3[nH]2)n1 [Compound 113, (E)-2-(2-(6-Bromo-1H-indol-2-yl)vinyl)-4-methylthiazole]	> 1000 nM
Cc1csc(/C=C/c2cc3ccc(Br)cc3[nH]2)c1 [Compound 117, (E)-6-Bromo-2-(2-(4-methylthiophen-2-yl)vinyl)-1H-indole]	> 1000 nM
Cn1c(-c2cc3ccccc3s2)nc2cc(Br)ccc21 [Compound 156, 2-(Benzo[b]thiophen-2-yl)-5-bromo-1-methyl-1H-benzo[d]imidazole]	> 1000 nM
FC(F)(F)C1(c2ccc(-c3cc4ccc(Br)cc4[nH]3)cc2)N=N1 [Compound 94, 6-bromo-2-(4-(3-(trifluoromethyl)-3H-diazirin-3-yl)phenyl)-1H-indole]	78.3 nM
COc1ccc(/C=C/c2cc3ccc(Br)cc3[nH]2)cn1 [Compound 111, (E)-6-Bromo-2-(2-(6-methoxypyridin-3-yl)vinyl)-1H-indole]	> 1000 nM
COc1ccc(C#Cc2cc3ccc(Br)cc3[nH]2)cn1 [Compound 144, 6-Bromo-2-((6-methoxypyridin-3-yl)ethynyl)-1H-indole]	> 1000 nM
[N-]=[N+]=Nc1ccc(-c2cc3ccc(Br)cc3[nH]2)cc1 [Compound 93, 2-(4-azidophenyl)-6-bromo-1H-indole]	40.5 nM
Brc1ccc(CCc2cc3ccc(Br)cc3[nH]2)cc1 [Compound 37b, 6-bromo-2-(4-bromophenethyl)-1H-indole]	187 nM
FC(F)(F)C1(c2ccc(-c3[nH]c4cc(Br)ccc4c3Cl)cc2)N=N1 [Compound 92, 6-bromo-3-chloro-2-(4-(3-(trifluoromethyl)-3H-diazirin-3-yl)phenyl)-1H-indole]	110 nM
COC(=O)c1c(C#Cc2ncc(Cl)cn2)[nH]c2cc(Br)ccc12 [Compound 143, Methyl 6-bromo-2-((5-chloropyrimidin-2-yl)ethynyl)-1H-indole-3-carboxylate]	< 50 nM
Cc1ccc(/C=C/c2cc3ccc(Br)cc3[nH]2)o1 [Compound 114, (E)-6-Bromo-2-(2-(5-methylfuran-2-yl)vinyl)-1H-indole]	> 1000 nM
COC(=O)c1c(-c2cc3ccc(Br)cc3[nH]2)[nH]c2ccccc12 [Compound 90, methyl 6′-bromo-1H,1′H-[2,2′-biindole]-3-carboxylate]	2.4 nM
Cc1nc(/C=C/c2cc3ccc(Br)cc3[nH]2)co1 [Compound 112, (E)-4-(2-(6-Bromo-1H-indol-2-yl)vinyl)-2-methyloxazole]	> 100000 nM
CC(=O)c1c(/C=C/c2ccc(Cl)cc2)[nH]c2cc(Br)ccc12 [Compound 122, (E)-1-(6-Bromo-2-(4-chlorostyryl)-1H-indol-3-yl)ethanone]	100 to 1000 nM
COC(=O)c1c(C#Cc2cc3cc(Cl)ccc3[nH]2)[nH]c2cc(Br)ccc12 [Compound 145, Methyl 6-bromo-2-((5-chloro-1H-indol-2-yl)ethynyl)-1H-indole-3-carboxylate]	> 1000 nM

same assay, conditions: Tables 1-6; 2 mM ADP, 10 mM PEP, 15 nM PK; read-out: IC50

Structure (SMILES)	IC50
O=C(Nc1nc2ccc(Br)cc2s1)c1cc(Br)ccc1O [Compound 51, 5-Bromo-N-(6-bromobenzo[d]thiazol-2-yl)-2-hydroxybenzamide]	3 nM

same assay, conditions: read-out: % inhibition (IC50)

Structure (SMILES)	inhibition at 4 µM
Brc1ccc2cc(CCc3ccccc3)[nH]c2c1 [Compound 37a, 6-bromo-2-phenethyl-1H-indole]	56%

same assay, conditions: read-out: % inhibition at the highest concentration tested (IC50)

Structure (SMILES)	inhibition at 10 µM
FC(F)(F)C1(c2ccc(-c3cc4ccc(Br)cc4[nH]3)cc2)NN1 [Compound 89, 6-Bromo-2-(4-(3-(trifluoromethyl)diaziridin-3-yl)phenyl)-1H-indole]	84%
Cn1c(C#Cc2cc3ccc(Br)cc3n2C)cc2ccc(Br)cc21 [Compound 26b, 1,2-bis(6-bromo-1-methyl-1H-indol-2-yl)ethyne]	27%
Brc1ccc2[nH]c(-c3cc4ccccc4[nH]3)cc2c1 [Compound 10h, 5-Bromo-1H,1′H-2,2′-biindole]	36%
